This assay deals with normal human breast tissues (breast epithelial cells). The experiment in a line: Tissue explant (tissue slice) culture of normal breast tissue with pathway inhibitors, hormones or tamoxifen: frequency of BrdU+, Ki67+ and p27+ cells. It is filed as cell-based. The following applies: for number of cells incorporating BrdU: BrdU pulse 5 hrs; for frequency (numbers) of p27+ cells: normal breast tissue explant / tissue slice culture with inhibitor or tamoxifen, 8-10 days, FIG. 24, FIG. 26C.

[1] abbreviates: normal breast tissue explant culture with inhibitor for 8-10 days, versus control, FIG. 24.

“Also recorded” adds a separate entry of the source.

Protocol: The multicolor immunofluorescence for p27 and Ki67 was performed by incubating the samples with monoclonal antibody anti-p27 (1:100 dilution) and polyclonal antibody anti-Ki67 (1:50 dilution) for one hour at room temperature followed by goat anti-mouse IgG1 Alexa 555-conjugated (Invitrogen, 1:100 dilution, for detection of p27) and goat anti-rabbit Alexa 488-conjugated (Invitrogen, 1:100 dilution, for detection of Ki67) for 30 minutes at room temperature. Multicolor immunofluorescence for pSMAD2 (1:50 dilution), pEGFR (1:50 dilution) and Axin2 (1:20 dilution) were performed by incubation for 2 h at room temperature or overnight at 4° C. followed by secondary antibody Rabbit Alexa 488 conjugated (Invitrogen, 1:100 dilution for pSMAD2 and pEGFR) or mouse IgG1 Alexa-488 conjugated (Invitrogen 1:100 dilution) for Axin2 for 30 minutes at room temperature.
Scoring for the expression of each marker was done as follows: p27 fluorescence intensity was scored in the nuclei of 20 randomly selected cells using the ImageJ 1.43r software; Sox17 and COX2 expression was inferred by the combination of two variables: 1) the percentage cells expressing each marker, and 2) the intensity of each marker transformed into a categorical variable based on 0 no expression, 1 weak expression, 2 moderate expression and 3 high expression; the percentage of p27+, Ki67+ and BrdU+ cells was estimated by counting an average of 1000 cells/sample in the case of the mammary epithelium for premenopausal, postmenopausal and high-low density cases, and an average of 2,000 cells in the case of the tissue slices cultures. % of pSMAD2+ cells was estimated by counting an average of 600 cells/sample. For pEGFR and Axin2 fluorescence intensity measurement, mean fluorescence intensity was measured using Image J 1.43r software by counting an average of 600 cells/sample corrected by area and subtracting the average of background fluorescence intensity. […] For p27 and AR staining, p27 (1:100 dilution and AR (1:30 dilution) antibodies were incubated overnight at 40 C followed by incubation at RT for 1 h with subsequent staining by goat anti-mouse IgG1 Alexa 555-conjugated (Invitrogen, 1:100 dilution, for detection of p27) and anti-rabbit IgG Alexa 488-conjugated (Invitrogen, 1:80 dilution). Percentage of p27+, AR+, ER+ cells was estimated by counting 500-1000 cells/sample. Nuclear staining with DAPI and multiple fluorescence images from each section were acquired with 40× plan apo objective, following procedure described above.
Normal human breast tissues were collected from reduction mammoplasties, transported in ice-cold DMEM-F12 medium, and processed within 24 hrs. For organ cultures, thin (˜1 mm thick) slices of tissue were cut from epithelium-enriched areas and cultured for 8 days in 6-well plates using co-culture inserts to optimize the tissue/medium contact surface and changing medium (2 ml/well) every 24 hrs. […] Following 8 days of culture, labeled tissue slices were pulse with bromo-deoxy-uridine (30 μM final concentration) for 5 hrs before fixing the tissue in buffered formalin at room temperature for 24 hrs followed by embedding in paraffin. Experiments were performed in triplicates using tissue from different regions of the same breast, uncultured tissue and tissue cultured without any drugs as controls.

`CC1=C2C[C@H]3[C@@H](CC=C4C[C@@H](O)CC[C@@]43C)[C@@H]2CC[C@]12O[C@@H]1C[C@H](C)CN[C@H]1[C@H]2C` [Hh, cyclopamine]: the “number of cells incorporating BrdU” value under setting [1] is “significantly (p<0.05) decreased”.

With `COc1cc([C@@H]2c3cc4c(cc3[C@H](O)[C@H]3COC(=O)[C@@H]23)OCO4)cc(OC)c1OC` [IGFR, picropodophylotoxin], the “frequency (numbers) of p27+ cells” value is “most pronouncedly decreased; also recorded: decreased”. Besides, the “number of cells incorporating BrdU” value under setting [1] was “significantly (p<0.05) decreased”. Turning to `C[C@]12CC[C@@H]3c4ccc(O)cc4CC[C@H]3[C@@H]1CC[C@@H]2O` [estrogen, estradiol], the “numbers of p27+ cells” value (tissue slices treated with concentrations of estrogen present in follicular phase (0.5 μM of estradiol for 8 days), FIG. 26B) was “high”. `COc1cc2ncnc(Nc3cccc(Cl)c3)c2cc1OC` [EGFR, tyrphostin AG1478]: under setting [1], the “number of cells incorporating BrdU” value is on record as “significantly (p<0.05) decreased” and the “fraction of Ki67+ cells” value is “decreased”. On to `CC/C(=C(\c1ccccc1)c1ccc(OCCN(C)C)cc1)c1ccccc1` [tamoxifen], for which the “frequency (numbers) of p27+ cells” value is listed as “high”. Consider `c1ccc(-c2nn3c(c2-c2ccnc4cc(OCCN5CCOCC5)ccc24)CCC3)nc1` [TGFBR inhibitor, LY2109761], for which the “frequency (numbers) of p27+ cells” value is on record as “most pronouncedly decreased; also recorded: decreased”. Moreover, under setting [1], the “number of cells incorporating BrdU” value is “opposite effect”.

Source of the values: US11644466B2, “Methods for treating, preventing and predicting risk of developing breast cancer” (Dana-Farber Cancer Institute, Inc., priority 2012, dated 2023).
